Laboratory results from publication PMC6208284 (Phytotherapy Research, 2018).
Where two headings read alike, the source gives them in different places.

Tests used:
[1] = test system: Leishmania tarentolae promastigotes (LtP); assay: Viability of LtP treated with EO main components (resazurin); type: cell-based
Description: LtP (200 μl, 2 × 10^6 parasites/ml) in YEM/phosphate‐buffered saline (PBS; 1:1 vol/vol, including antibiotics and 6 μM hemin) were distributed in 96‐well plates (nontreated plates). Compound stocks (in DMSO, max. 2% final concentration) were added, and five 1:3 serial dilutions were performed. Control rows with YEM/PBS (no activity) and with untreated LtP (vehicle, DMSO; 100% activity) were loaded, and the plate was incubated at 26 °C for 48 hr. Then resazurin (50 μl in PBS) was added (20 μM final concentration), and after 4 hr of incubation at 26 °C, the fluorescence of […] was measured at 560 nm excitation and 590 nm emission using a plate reader (PerkinElmer Enspire, Germany). Each compound was tested in triplicate.

[2] = test system: Leishmania tarentolae promastigotes (LtP); assay: Oxygen consumption of LtP, Clark-type electrode (immediate effect); type: cell-based; conditions: 10-200 μM tested
Description: Direct inhibitors of mitochondrial ETC instantaneously influence mitochondrial oxygen consumption. To assay the effect of EO compounds on oxygen consumption of LtP, a Clark‐type oxygen electrode (Hansatech, Germany) and software MCREC were used. LtP at approximately 10^8 cells/ml in YEM (25 °C) were added and treated with increasing concentrations of EO compounds between 10 and 200 μM and for EO 5.6–89.6 μg/ml. Each concentration was assayed in quadruplicates, and the results were expressed as percentage of oxygen consumption in comparison with the untreated control LtP. The highest concentration of the vehicle (1% DMSO) caused only 2% inhibition. The uncoupling effect in short‐term and long‐term (0, 6, and 24 hr) incubations with Asc (200 μM) was studied in Oligo‐inhibited (5 μM) and uncoupler‐stimulated (0.5 μM CCCP) LtP in Schneider's medium supplemented with 6 μM hemin. Four replicates were performed for each concentration.

[3] = target: T1, ubiquinol:cytochrome c oxidoreductase (complex III), BH‐SMP (Bos taurus, UniProt P00125+P00157+P13272); assay: dUQH2:cyt c3+ oxidoreductase (complex III) activity in BH‐SMP; type: biochemical, bovine
T1 construct: from tissue; host or cells: bovine heart submitochondrial particles (BH-SMP)
Description: (§1) To measure the ubiquinol:cyt c ^3+ oxidoreductase (complex III) activity, the reduction of 100 μM cyt c ^3+ at 550 nm using 540 nm as reference was monitored in the presence of the artificial substrate decylubiquinol (dUQH2, 75 μM), which was prepared from dUQ by reduction (Müllebner et al., 2010). The dUQH2:cyt c ^3+ oxidoreductase activities of 40 μg protein/ml of LtP‐Mit or 3.2 μg protein/ml of BH‐SMP were measured in 1 ml of buffer containing 250 mM sucrose, 50 mM KH2PO4, 0.2 mM EDTA (pH 7.2), 2 mM KCN, and 4 mM NaN3. Respective EO compounds were added 50 s after starting the time scan, and the reaction was started after 100 s with dUQH2 and was monitored for additional 150 s. The activity of noninhibited dUQH2:cyt c ^3+ oxidoreductase activity was measured in the presence of the vehicle for the respective inhibitor (DMSO). All inhibitor concentrations were tested in triplicate. The reduction rates for cyt c ^3+ were calculated from the time trace of the absorption difference at 550 − 540 nm (ε550–540 nm = 19 mmol^−1 L cm^−1). Reduction rates in the presence of DMSO (maximum amount that was introduced by test compound stocks) were set to 100%, and the remaining activities in the presence of EO compounds were expressed in %. Three replicates were measured for each concentration.

[4] = target: T2, cytochrome bc 1 complex purified from Saccharomyces cerevisiae (Saccharomyces cerevisiae, UniProt P00163+P07143+P08067); assay: dUQH2:cyt c3+ oxidoreductase activity of isolated ScY‐bc 1; type: biochemical
T2 construct: endogenous in cells; host or cells: Native complex purified in house from yeast submitochondrial particles (Triton X-100, hydroxyapatite)
Description: Cytochrome bc 1 complex was obtained from ScY‐SMP and BH‐SMP following published methodology (Geier, Schägger, Brandt, Colson, & von Jagow, 1992) with minor modifications as described below. SMP were resuspended in 1.1% Triton X‐100 and […] phenylmethylsulfonyl fluoride, pH 7.2, and centrifuged for 1 hr at 100,000 g. The bc 1 complex in the sediment was solubilized with 2.2% Triton X‐100, 600 mM NaCl, 10 mM KH2PO4, and 10 mM EDTA, pH 7.2. After centrifugation at 100,000 g for 1 hr, the supernatant was mixed with 50 ml of hydroxyapatite, equilibrated with 0.5% Triton X‐100, 250 mM NaCl, and 100 mM NaHPO4, pH 7.2. After washing the hydroxyapatite with 50 ml of equilibration buffer ([…], 100 mM NaHPO4, and 250 mM NaCl), the bc 1 complexes from ScY‐SMP and BH‐SMP (ScY‐bc 1 and BH‐bc 1, respectively) were eluted from hydroxyapatite with 250 mM KH2PO4 and 0.25% Triton X‐100, pH 7.2, and stored in liquid nitrogen.
as §1, with “Reduction rates in the presence of DMSO (maximum amount that was introduced by test compound stocks) were set to 100%, and the remaining activities in the presence of EO compounds were expressed in %.” left out, “concentration. […]” for “concentration.”

[5] = test system: Leishmania tarentolae promastigotes (LtP); assay: Immediate mitochondrial uncoupling in LtP, OxoPlates with oligomycin; type: cell-based; conditions: LtP + 5 μM Oligo, OxoPlates
Description: U‐shaped 96‐well OxoPlates (OP96U PreSens, Germany) with integrated fluorescence oxygen sensors were used for parallel LtP experiments. Oxygen concentrations were measured using a PerkinElmer Enspire fluorescence plate reader using excitation wavelength 540 nm and two emission wavelengths (reference dye 590 nm, IRef, and O2‐sensing dye 650 nm, IInd). The oxygen concentration (μM O2) was calculated according to manufacturer's instructions as described previously (Monzote et al., 2016). Measurements with LtP were performed in air‐saturated BHI medium. […] Immediately before the measurement, 150 μl of well‐aerated cell suspensions (13 × 10^7 LtP per ml) was added to the respective wells. Finally, on the top of each well, 50 μl of paraffin oil was layered. Two minutes after mixing, the fluorescence measurements at 27 °C were started, and eight measurements at 5‐min intervals were performed. From the linear part of the O2 decay, the slopes were calculated and corrected for the medium drift for further statistic evaluation. All measurements were performed at least in triplicate. For bioenergetic characterization, the ATP synthase inhibitor Oligo (5 μM) and as positive control CCCP (0.7–5 μM) were used. Respiratory control ratio (RCR) was calculated from respiration rate in the presence of Oligo and compounds/uncoupler divided by the rate in the presence of Oligo.

[6] = test system: Leishmania amazonensis promastigotes (LaP); set-up: method as in Monzote, Garcia, et al., 2014; conditions: ref Monzote, Garcia, et al., 2014, cited from earlier work; for IC50: previous study, read-out: IC50 against LaP
[7] = 48 hr at 26 °C, resazurin, n = 3, read-out: IC50, viability of LtP
[8] = read-out: IC50 Complex III BH‐SMP
[9] = immediate inhibition, five experiments, read-out: IC50 ± SD ScY‐bc 1

SMILES | IC50 [1, 7] [µM] | Inhibition of LtP oxygen consumption (in words) [2] | IC50 ([2]; Leishmania tarentolae, read-out: IC50, inhibition of LtP oxygen consumption) [µM] | IC50 [3, 8] [µM] | IC50 [4, 9] [µM] | Oxygen consumption on top of the inhibition by Oligo ([5]; highest concentration 200 μM) | IC50 [6] [µM] | % of inhibition at highest concentration tested, Complex III BH‐SMP [3] [%] | Immediate uncoupling effect (stimulation of Oligo-inhibited oxygen consumption) [5] | IC50 ([1]; 48 h, read-out: IC50, viability of LtP) [µM] | IC50 [3] [µM] | IC50 [4] [µM] | IC50 values for L. amazonensis in the presence of iron chelators ([6]; with iron chelators)
C=C1CC[C@H]2O[C@]2(C)CC[C@@H]2[C@@H]1CC2(C)C [Caryo, caryophyllene oxide] | 36 ± 17.6 | strongly inhibited LtP oxygen consumption | 98 ± 2 | > 100 | 179 ± 1 | totally inhibited the oxygen consumption | 22.2 ± 10.4 | – | – | – | – | – | –
Cc1ccc(C(C)C)cc1O [Car, carvacrol] | 11.6 ± 3.4 | failed to strongly inhibit oxygen consumption | – | > 100 | 941 ± 41 | – | 101 ± 30 | 22.8 | Neither Car nor Asc (Figure 6a,b) showed an uncoupling effect | – | – | – | –
CC(C)C12C=CC(C)(CC1)OO2 (stereo not shown) [Asc, ascaridole] | – | failed to strongly inhibit oxygen consumption | – | – | – | – | 0.6 ± 0.06 | 17.7 | Neither Car nor Asc (Figure 6a,b) showed an uncoupling effect | 24.5 ± 3 | > 100 | 675 ± 6 | strongly increased
